Experimental data from patent US20030049317A1, “Method and composition for reducing the danger and preventing the abuse of controlled release pharmaceutical formulations” (priority 2001, published 2003).
Where two headings read alike, the source gives them in different places.

How the values were obtained:
[1] = tested on: morphine-like opioid agonist effects; details: cited from earlier work; for action of the naloxone amount in Talwin Nx: naloxone hydrochloride equivalent to 0.5 mg base
[2] = type: in vivo; details: in comparison to a 15 mg dose of hydrocodone

Row | SMILES | onset of effects ([1]; after intravenous administration) | action of the naloxone amount in Talwin Nx ([1]; given by injection) | action of the naloxone amount in Talwin Nx ([1]; taken orally) | block of heroin effects ([1]; one mg intravenously versus 25 mg of heroin) | effect on morphine-like opioid agonist effects ([1]; small doses (0.4-0.8 mg) intramuscularly or intravenously in humans) | Equianalgesic dose, Calculated Dose [2]
1 | C=CCN1CC[C@]23c4c5ccc(O)c4O[C@H]2C(=O)CC[C@@]3(O)[C@H]1C5 [naloxone] | almost immediately | profound antagonistic action to narcotic analgesics | no action when taken orally | completely block the effects of 25 mg of heroin | prevents or promptly reverses the effects of morphine-like opioid agonist | –
2 | COc1ccc2c3c1O[C@H]1C(=O)CC[C@H]4[C@@H](C2)N(C)CC[C@]314 [Hydrocodone] | – | – | – | – | – | 15.0 mg
